According to PubChem BioAssay (NCI):
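Briefly, cells in 96-well plates were exposed to five compound concentrations for 48 h, and endpoints were estimated by linear interpolation. At the TGI there is no net growth.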

What was measured:
Assay in all cases: inhibition of tumour cell growth, NCI panel, 48 h
SK-OV-3 ovarian = test system: SK-OV-3 ovarian
ACHN renal = test system: ACHN renal
HT29 colon = test system: HT29 colon
XF 498 CNS = test system: XF 498 CNS
CCRF-CEM leukemia = test system: CCRF-CEM leukemia
MOLT-4 leukemia = test system: MOLT-4 leukemia
M19-MEL melanoma = test system: M19-MEL melanoma
NCI-H460 lung = test system: NCI-H460 lung
SF-268 CNS = test system: SF-268 CNS
UACC-62 melanoma = test system: UACC-62 melanoma
SK-MEL-5 melanoma = test system: SK-MEL-5 melanoma
HOP-18 NSCLC = test system: HOP-18 NSCLC
SW-620 colon = test system: SW-620 colon
DMS 114 small cell lung = test system: DMS 114 small cell lung
UO-31 renal = test system: UO-31 renal
A498 renal = test system: A498 renal
SK-MEL-28 melanoma = test system: SK-MEL-28 melanoma
HCT-116 colon = test system: HCT-116 colon
OVCAR-8 ovarian = test system: OVCAR-8 ovarian
COLO 205 colon = test system: COLO 205 colon
K-562 leukemia = test system: K-562 leukemia
HOP-92 NSCLC = test system: HOP-92 NSCLC
DMS 273 small cell lung = test system: DMS 273 small cell lung
786-0 renal = test system: 786-0 renal
SN12C renal = test system: SN12C renal
SF-539 CNS = test system: SF-539 CNS
DLD-1 colon = test system: DLD-1 colon
LOX IMVI melanoma = test system: LOX IMVI melanoma
HCT-15 colon = test system: HCT-15 colon
RPMI-8226 leukemia = test system: RPMI-8226 leukemia
KM20L2 colon = test system: KM20L2 colon
EKVX NSCLC = test system: EKVX NSCLC
TK-10 renal = test system: TK-10 renal
LXFL 529 NSCLC = test system: LXFL 529 NSCLC
U251 CNS = test system: U251 CNS
IGROV1 ovarian = test system: IGROV1 ovarian
SF-295 CNS = test system: SF-295 CNS
HL-60(TB) leukemia = test system: HL-60(TB) leukemia
A549 NSCLC = test system: A549 NSCLC
M14 melanoma = test system: M14 melanoma
SNB-19 CNS = test system: SNB-19 CNS
SNB-78 CNS = test system: SNB-78 CNS
NCI-H23 lung = test system: NCI-H23 lung
OVCAR-5 ovarian = test system: OVCAR-5 ovarian
SNB-75 CNS = test system: SNB-75 CNS
MALME-3M melanoma = test system: MALME-3M melanoma
OVCAR-3 ovarian = test system: OVCAR-3 ovarian
NCI-H226 lung = test system: NCI-H226 lung
UACC-257 melanoma = test system: UACC-257 melanoma
OVCAR-4 ovarian = test system: OVCAR-4 ovarian
SR leukemia = test system: SR leukemia
HCC-2998 colon = test system: HCC-2998 colon
NCI-H522 lung = test system: NCI-H522 lung
RXF 393 renal = test system: RXF 393 renal
HOP-62 NSCLC = test system: HOP-62 NSCLC

Structure (SMILES): COc1ccc(/C=C/C(=O)c2c(-c3ccccc3)nn(C)c(=O)c2N2CCCC2)cc1
- TGI (SK-OV-3 ovarian): > 100 µM
- TGI (ACHN renal): > 100 µM
- TGI (HT29 colon): > 100 µM
- TGI (XF 498 CNS): > 100 µM
- TGI (CCRF-CEM leukemia): > 100 µM
- TGI (MOLT-4 leukemia): > 100 µM
- TGI (M19-MEL melanoma): > 100 µM
- TGI (NCI-H460 lung): > 100 µM
- TGI (SF-268 CNS): > 100 µM
- TGI (UACC-62 melanoma): > 100 µM
- TGI (SK-MEL-5 melanoma): > 100 µM
- TGI (HOP-18 NSCLC): > 100 µM
- TGI (SW-620 colon): > 100 µM
- TGI (DMS 114 small cell lung): > 100 µM
- TGI (UO-31 renal): > 100 µM
- TGI (A498 renal): > 100 µM
- TGI (SK-MEL-28 melanoma): > 100 µM
- TGI (HCT-116 colon): > 100 µM
- TGI (OVCAR-8 ovarian): > 100 µM
- TGI (COLO 205 colon): > 100 µM
- TGI (K-562 leukemia): > 100 µM
- TGI (HOP-92 NSCLC): 37.5 µM
- TGI (DMS 273 small cell lung): > 100 µM
- TGI (786-0 renal): > 100 µM
- TGI (SN12C renal): > 100 µM
- TGI (SF-539 CNS): > 100 µM
- TGI (DLD-1 colon): > 100 µM
- TGI (LOX IMVI melanoma): > 100 µM
- TGI (HCT-15 colon): > 100 µM
- TGI (RPMI-8226 leukemia): > 100 µM
- TGI (KM20L2 colon): > 100 µM
- TGI (EKVX NSCLC): > 100 µM
- TGI (TK-10 renal): > 100 µM
- TGI (LXFL 529 NSCLC): > 100 µM
- TGI (U251 CNS): > 100 µM
- TGI (IGROV1 ovarian): > 100 µM
- TGI (SF-295 CNS): > 100 µM
- TGI (HL-60(TB) leukemia): > 100 µM
- TGI (A549 NSCLC): > 100 µM
- TGI (M14 melanoma): > 100 µM

Structure (SMILES): O=S(Cc1cnc2ccccc2c1)c1nc2ccccc2nc1-c1cccs1 (configuration not stated)
- TGI (SK-OV-3 ovarian): 73 µM
- TGI (ACHN renal): 26.4 µM
- TGI (HT29 colon): 37.1 µM
- TGI (XF 498 CNS): 16.9 µM
- TGI (CCRF-CEM leukemia): > 100 µM
- TGI (SNB-19 CNS): 43.6 µM
- TGI (SNB-78 CNS): 50.7 µM
- TGI (MOLT-4 leukemia): > 100 µM
- TGI (SF-268 CNS): 39.6 µM
- TGI (HOP-18 NSCLC): 31.7 µM
- TGI (NCI-H23 lung): 35.7 µM
- TGI (OVCAR-5 ovarian): 28.5 µM
- TGI (DMS 114 small cell lung): 25.8 µM
- TGI (UO-31 renal): 28.3 µM
- TGI (SK-MEL-28 melanoma): 34.9 µM
- TGI (HCT-116 colon): 22.4 µM
- TGI (OVCAR-8 ovarian): 51.7 µM
- TGI (COLO 205 colon): 42 µM
- TGI (K-562 leukemia): > 100 µM
- TGI (HOP-92 NSCLC): 25 µM
- TGI (DMS 273 small cell lung): 34.9 µM
- TGI (786-0 renal): 27.3 µM
- TGI (SN12C renal): 32.8 µM
- TGI (SF-539 CNS): 32.8 µM
- TGI (RPMI-8226 leukemia): > 100 µM
- TGI (EKVX NSCLC): 25 µM
- TGI (SNB-75 CNS): 39.3 µM
- TGI (MALME-3M melanoma): 37.7 µM
- TGI (OVCAR-3 ovarian): 34.7 µM
- TGI (NCI-H226 lung): 11.6 µM
- TGI (LXFL 529 NSCLC): 20.8 µM
- TGI (UACC-257 melanoma): 31.2 µM
- TGI (U251 CNS): 33.5 µM
- TGI (IGROV1 ovarian): 33.4 µM
- TGI (SF-295 CNS): 61 µM
- TGI (HL-60(TB) leukemia): 72.8 µM
- TGI (A549 NSCLC): 48.6 µM
- TGI (OVCAR-4 ovarian): 24.6 µM
- TGI (M14 melanoma): 32.2 µM

Structure (SMILES): Cc1ccc([N+]2=NC(c3ccc([N+](=O)[O-])cc3)=NN(c3ccccc3)C2)cc1
- TGI (ACHN renal): > 100 µM
- TGI (HT29 colon): > 100 µM
- TGI (XF 498 CNS): > 100 µM
- TGI (CCRF-CEM leukemia): > 100 µM
- TGI (SNB-19 CNS): > 100 µM
- TGI (SNB-78 CNS): > 100 µM
- TGI (MOLT-4 leukemia): > 100 µM
- TGI (M19-MEL melanoma): > 100 µM
- TGI (NCI-H460 lung): > 100 µM
- TGI (SR leukemia): > 100 µM
- TGI (SF-268 CNS): > 100 µM
- TGI (SK-MEL-5 melanoma): > 100 µM
- TGI (NCI-H23 lung): > 100 µM
- TGI (SW-620 colon): > 100 µM
- TGI (OVCAR-5 ovarian): > 100 µM
- TGI (DMS 114 small cell lung): > 100 µM
- TGI (UO-31 renal): > 100 µM
- TGI (A498 renal): > 100 µM
- TGI (SK-MEL-28 melanoma): > 100 µM
- TGI (HCT-116 colon): > 100 µM
- TGI (OVCAR-8 ovarian): > 100 µM
- TGI (COLO 205 colon): > 100 µM
- TGI (K-562 leukemia): > 100 µM
- TGI (DMS 273 small cell lung): > 100 µM
- TGI (786-0 renal): > 100 µM
- TGI (SN12C renal): > 100 µM
- TGI (DLD-1 colon): > 100 µM
- TGI (LOX IMVI melanoma): > 100 µM
- TGI (HCT-15 colon): > 100 µM
- TGI (RPMI-8226 leukemia): > 100 µM
- TGI (KM20L2 colon): > 100 µM
- TGI (EKVX NSCLC): > 100 µM
- TGI (MALME-3M melanoma): > 100 µM
- TGI (OVCAR-3 ovarian): > 100 µM
- TGI (NCI-H226 lung): > 100 µM
- TGI (TK-10 renal): > 100 µM
- TGI (LXFL 529 NSCLC): > 100 µM
- TGI (UACC-257 melanoma): > 100 µM
- TGI (U251 CNS): > 100 µM
- TGI (HCC-2998 colon): > 100 µM
- TGI (NCI-H522 lung): 39 µM
- TGI (IGROV1 ovarian): > 100 µM
- TGI (SF-295 CNS): > 100 µM
- TGI (HL-60(TB) leukemia): > 100 µM
- TGI (A549 NSCLC): > 100 µM
- TGI (OVCAR-4 ovarian): 49 µM
- TGI (RXF 393 renal): > 100 µM
- TGI (HOP-62 NSCLC): > 100 µM
